Results published in the supplement of paper PMC10307832.

How the values were obtained:
Experiment in all cases: relative viability (nuclei count vs DMSO), 5 days (fraction); higher = more cells survive
[1] = compound: N[C@@H]1CCCN(c2c(/C=C3\SC(=O)NC3=O)cccc2-c2ccccc2)C1 [AZD1208] + CC(=O)Nc1cccc(-n2c(=O)n(C3CC3)c(=O)c3c(Nc4ccc(I)cc4F)n(C)c(=O)c(C)c32)c1 [Trametinib] (partner 0.02 µM)
Summary of the method: (§1)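 One day after seeding in 1536-well plates, lung cancer cell lines were dosed by pin tool. Dosing was either single-drug or a fixed anchor-drug dose plus five library-drug doses (not always all listed) in √10 steps. After 5 days, nuclei were stained in one fix-and-stain step and counted on 4× images, and relative viability is the nuclei count of treated wells over that of vehicle wells, given as the median of duplicate plates.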

[2] = compound: CN1CCN(CC1)C2=CC(=C(C=C2)NC3=NC(=C(S3)C(=O)C4=C(C=CC=C4Cl)Cl)N)OC [XMD14-99] + N=C(N)NC(=N)NCCc1ccccc1 [Phenformin] (partner 250 µM)
Summary of the method: as §1

[3] = compound: N[C@@H]1CCCN(c2c(/C=C3\SC(=O)NC3=O)cccc2-c2ccccc2)C1 [AZD1208] + CS(=O)(=O)N1CCN(Cc2cc3nc(-c4cccc5[nH]ncc45)nc(N4CCOCC4)c3s2)CC1 [Pictilisib] (partner 1 µM)
Summary of the method: as §1

[4] = compound: N[C@@H]1CCCN(c2c(/C=C3\SC(=O)NC3=O)cccc2-c2ccccc2)C1 [AZD1208] + O=C(CCCCCCC(=O)Nc1ccccc1)NO [Vorinostat] (partner 1 µM)
Summary of the method: as §1

Cell Line	relative viability ([1]; first compound 0.08 µM)	relative viability ([1]; first compound 0.253 µM)	relative viability ([1]; first compound 0.8 µM)	relative viability ([1]; first compound 2.53 µM)	relative viability ([1]; first compound 8 µM)	relative viability ([2]; first compound 0.08 µM)	relative viability ([2]; first compound 0.8 µM)	relative viability ([2]; first compound 2.53 µM)	relative viability ([2]; first compound 8 µM)	relative viability ([3]; first compound 0.08 µM)	relative viability ([3]; first compound 0.253 µM)	relative viability ([3]; first compound 0.8 µM)	relative viability ([3]; first compound 2.53 µM)	relative viability ([3]; first compound 8 µM)	relative viability ([4]; first compound 0.08 µM)	relative viability ([4]; first compound 0.253 µM)	relative viability ([4]; first compound 0.8 µM)	relative viability ([4]; first compound 2.53 µM)	relative viability ([4]; first compound 8 µM)
201T	0.749	0.716	0.721	0.725	0.732	0.449	0.441	0.422	0.41	0.644	0.641	0.649	0.62	0.686	0.961	1.01	0.967	0.949	0.952
A549						0.153	0.16	0.0976	0.133	0.409	0.423	0.303	0.283	0.358					
A-427	0.622	0.71	0.6	0.619	0.537	0.431	0.31	0.259	0.231	0.673	0.664	0.597	0.74	0.533	0.873	0.913	0.836	0.906	0.828
ABC-1						0.237	0.203	0.227	0.232	0.526	0.665	0.565	0.623	0.627	1.75	1.08	0.922	0.997	1.02
BEN	0.843	0.754	0.636	0.768	0.576	0.26	0.292	0.248	0.257	0.525	0.447	0.414	0.387	0.373	0.61	0.584	0.49	0.503	0.427
CAL-12T	0.377	0.331	0.339	0.332	0.251	0.597	0.567	0.525	0.412	0.507	0.523	0.389	0.355	0.511	0.675	0.814	0.565	0.653	0.439
COR-L23	0.511	0.581	0.525	0.57	0.301	0.446	0.418	0.372	0.301	0.738	0.87	0.725	0.693	0.75	0.488	0.401	0.49	0.433	0.41
COR-L 105	0.435	0.366	0.408	0.625	0.378	0.477	0.494	0.398	0.371	0.369	0.3	0.353	0.366	0.451	1.04	0.833	0.898	0.832	0.779
Calu-6										0.784	1	0.851	0.829	0.739					
ChaGo-K-1	0.884	0.905	0.78	0.88	0.806	0.474	0.51	0.494	0.388	0.979	0.698	0.644	0.537	0.484	0.732	0.831	0.557	0.637	0.608
EBC-1										0.2	0.275	0.265	0.271	0.274					
EKVX	0.35	0.387	0.306	0.309	0.45	0.261	0.246	0.227	0.23	0.395	0.421	0.349	0.375	0.365	0.766	0.583	0.744	0.735	0.763
EMC-BAC-2	0.852	0.83	0.777	0.806	0.702	0.51	0.515	0.445	0.384	0.537	0.528	0.463	0.474	0.47	0.872	0.394	0.447	0.469	0.399
EPLC-272H	0.312	0.268	0.279	0.254	0.315	0.284	0.256	0.302	0.347	0.362	0.278	0.349	0.324	0.271	0.405	0.505	0.38	0.333	0.443
H3255	0.537	0.616	0.636	0.624	0.519	0.384	0.398	0.337	0.335	0.402	0.44	0.408	0.364	0.451	0.831	0.869	0.772	0.747	0.74
HARA	0.551	0.743	0.761	0.542	0.35	0.438	0.486	0.346	0.324	0.349	0.373	0.452	0.286	0.363	0.489	0.486	0.451	0.515	0.546
HCC-15	0.381	0.338	0.326	0.312	0.296	0.51	0.499	0.419	0.321	0.611	0.679	0.524	0.548	0.515	0.805	0.859	0.834	0.83	0.692
HCC-44	1.1	1.12	1.02	1.1	1.05	0.261	0.16	0.303	0.168	0.617	0.463	0.372	0.46	0.458	1.2	1.09	1.13	1.11	1.12
HCC-78	0.689	0.806	0.702	0.834	0.919	0.681	0.551	0.743	0.451	0.205	0.206	0.198	0.195	0.205	0.435	0.444	0.413	0.403	0.37
HCC-366	0.328	0.327	0.297	0.286	0.221	0.647	0.636	0.564	0.554	0.112	0.0978	0.123	0.092	0.0878	0.373	0.473	0.391	0.36	0.291

Cell Line	relative viability ([1]; first compound 0.08 µM)	relative viability ([1]; first compound 0.253 µM)	relative viability ([1]; first compound 0.8 µM)	relative viability ([1]; first compound 2.53 µM)	relative viability ([1]; first compound 8 µM)	relative viability ([2]; first compound 0.08 µM)	relative viability ([2]; first compound 0.8 µM)	relative viability ([2]; first compound 2.53 µM)	relative viability ([2]; first compound 8 µM)	relative viability ([3]; first compound 0.08 µM)	relative viability ([3]; first compound 0.253 µM)	relative viability ([3]; first compound 0.8 µM)	relative viability ([3]; first compound 2.53 µM)	relative viability ([3]; first compound 8 µM)	relative viability ([4]; first compound 0.08 µM)	relative viability ([4]; first compound 0.253 µM)	relative viability ([4]; first compound 0.8 µM)	relative viability ([4]; first compound 2.53 µM)	relative viability ([4]; first compound 8 µM)
HCC-827	0.557	0.516	0.536	0.524	0.398	0.406	0.37	0.377	0.308	1.07	1.15	0.992	0.95	0.784	0.991	0.904	0.861	0.839	0.78
HOP-62	0.372	0.381	0.379	0.377	0.322	0.707	0.648	0.643	0.547	0.658	0.638	0.658	0.455	0.717	0.657	0.856	0.6	0.455	0.572
IA-LM										0.256	0.326	0.292	0.231	0.308	0.922	1.27	0.778	0.863	0.853
LC-2-ad	0.92	0.917	0.664	0.933	0.935	0.611	0.554	0.58	0.505	0.397	0.446	0.405	0.357	0.417	0.716	0.703	0.685	0.704	0.669
LCLC-97TM1	0.21	0.172	0.137	0.183	0.162	0.431	0.414	0.466	0.355	0.164	0.175		0.121	0.145	0.64	0.99	0.623	0.442	0.54
LCLC-103H	0.63	0.651	0.683	0.686	0.681	0.294	0.348	0.318	0.298	0.568	0.614	0.485	0.455	0.448	0.772	0.858	0.789	0.613	0.697
LK-2	0.574	0.502	0.511	0.445	0.474	0.363	0.368	0.423	0.215	0.373	0.349	0.29	0.383	0.266	0.329	0.322	0.255	0.302	0.247
LOU-NH91	0.785	0.786	0.759	0.825	0.728	0.716	0.777	0.573	0.556	0.503	0.485	0.503	0.494	0.517	0.965	0.955	0.864	0.838	0.865
LU99A	0.574	0.575	0.515	0.508	0.446	0.888	0.917	0.728	0.603	0.304	0.294	0.289	0.35	0.236	0.471	0.618	0.481	0.467	0.332
LXF-289	0.678	0.629	0.673	0.694	0.747	0.52	0.502	0.487	0.457	0.706	0.724	0.73	0.699	0.724	0.791	0.849	0.701	0.715	0.832
NCI-H23	0.361	0.301	0.272	0.347	0.303	0.767	0.85	0.741	0.659	0.413	0.561	0.327	0.358	0.335	0.508	0.629	0.614	0.602	0.5
NCI-H322M	0.49	0.487		0.566	0.578	0.787	0.834	0.699	0.627	0.494	0.466	0.463	0.474	0.547	0.934	0.868		0.837	0.821
NCI-H522	0.686	0.663	0.55	0.635	0.677	0.658	0.616	0.702	0.692						0.691	0.75	0.768	0.828	0.836
NCI-H1299										0.731	0.725	0.818	0.653	0.562					
NCI-H1563						0.606	0.63	0.6	0.585	0.566	0.545	0.672	0.635	0.629					
NCI-H1648	0.588	0.441	0.435	0.402	0.497										0.371	0.491	0.298	0.36	0.89
NCI-H1703										0.225	0.242	0.238	0.214	0.198					
NCI-H1792	0.424	0.368		0.312	0.306	0.286	0.379	0.234	0.167	0.255	0.272	0.258	0.218	0.199					
NCI-H2342	0.803	0.806	0.781	0.678	0.637	0.675	0.782	0.68	0.513						0.831	0.702	0.604	0.799	0.597
SW 900	0.721	0.941	0.697	0.641	0.708	0.6	0.685	0.555	0.402						0.519	0.638	0.35	0.605	0.512
